Measurements from US20100029761A1, “NOVEL COMPOUNDS, PHARMACEUTICAL COMPOSITIONS CONTAINING SAME, AND METHODS OF USE FOR SAME” (priority 2005, published 2010).
Converted amounts (≈) assume the structure as drawn. Read-outs that look alike come from different tables or passages of the source.

Columns and labels:
[1] = molecular target: T1, purified human FAS (Homo sapiens, UniProt P49327); assay: Measurement of FAS enzymatic activity (malonyl-CoA dependent NADPH oxidation); type: biochemical
T1 construct: Human FAS was purified from cultured ZR-75-1 human breast cancer cells obtained from the American Type Culture Collection; endogenous in cells; host or cells: ZR-75-1 human breast cancer cells (ATCC); PEG precipitations and Mono Q anion exchange
Method: Human FAS was purified from cultured ZR-75-1 human breast cancer cells obtained from the American Type Culture Collection. The procedure, adapted from Linn et al., 1981, and Kuhajda et al., 1994, utilizes hypotonic lysis, successive polyethyleneglycol (PEG) precipitations, and anion exchange chromatography. ZR-75-1 cells are cultured at 37° C. with 5% CO2 in RPMI culture medium with 10% fetal bovine serum, penicillin and streptomycin.
Ten T150 flasks of confluent cells are lysed with 1.5 ml lysis buffer (20 mM Tris-HCl, pH 7.5, 1 mM EDTA, 0.1 mM phenylmethanesulfonyl fluoride (PMSF), 0.1% Igepal CA-630) and dounce homogenized on ice for 20 strokes. The lysate is centrifuged in JA-20 rotor (Beckman) at 20,000 rpm for 30 minutes at 4° C. and the supernatant is brought to 42 ml with lysis buffer. A solution of 50% PEG 8000 in lysis buffer is added slowly to the supernatant to a final concentration of 7.5%. After rocking for 60 minutes at 4° C., the solution is centrifuged in JA-20 rotor (Beckman) at 15,000 rpm for 30 minutes at 4° C. Solid PEG 8000 is then added to the supernatant to a final concentration of 15%. After the rocking and centrifugation is repeated as above, the pellet is resuspended overnight at 4° C. in 10 ml of Buffer A (20 mM K2HPO4, pH 7.4). After […] filtration, the protein solution is applied to a Mono Q 5/5 anion exchange column (Pharmacia). The column is washed for 15 minutes with buffer A at 1 ml/minute, and bound material is eluted with a linear 60-ml gradient over 60 minutes to 1 M KCl. FAS (MW˜270 kD) typically elutes at 0.25 M KCl in three 0.5 ml fractions identified using 4-15% SDS-PAGE with Coomassie G250 stain (Bio-Rad). FAS protein concentration is determined using the Coomassie Plus Protein Assay Reagent (Pierce) according to manufacturer's specifications using BSA as a standard. This procedure results in substantially pure preparations of FAS (>95%) as judged by Coomassie-stained gels.
FAS activity is measured by monitoring the malonyl-CoA dependent oxidation of NADPH spectrophotometrically at OD340 in 96-well plates (Dils et al and Arslanian et al, 1975). Each well contains 2 μg purified FAS, 100 mM K2HPO4, pH 6.5, 1 mM dithiothreitol (Sigma), and 187.5 μM β-NADPH (Sigma). Stock solutions of inhibitors are prepared in DMSO at 2, 1, and 0.5 mg/ml resulting in final concentrations of 20, 10, and 5 μg/ml when 1 μl of stock is added per well. For each experiment, cerulenin (Sigma) is run as a positive control along with DMSO controls, inhibitors, and blanks (no FAS enzyme) all in duplicate.
The assay is performed on a Molecular Devices SpectraMax Plus Spectrophotometer. The plate containing FAS, buffers, inhibitors, and controls are placed in the spectrophotometer heated to 37° C. Using the kinetic protocol, the wells are blanked on duplicate wells containing 100 μl of 100 mM K2HPO4, pH 6.5 and the plate is read at OD340 at 10 sec intervals for 5 minutes to measure any malonyl-CoA independent oxidation of NADPH. The plate is removed from the spectrophotometer and malonyl-CoA (67.4 μM, final concentration per well) and […] (61.8 μM, final concentration per well) are added to each well except to the blanks. The plate is read again as above with the kinetic protocol to measure the malonyl-CoA dependent NADPH oxidation. The difference between the Δ OD340 for the malonyl-CoA dependent and non-malonyl-CoA dependent NADPH oxidation is the specific FAS activity. Because of the purity of the FAS preparation, non-malonyl-CoA dependent NADPH oxidation is negligible.
The concentration of compound yielding 50% inhibition of FAS is the IC50. Graphs of Δ OD340 versus time are plotted by the SOFTmax PRO software (Molecular Devices) for each compound concentration. Computation of linear regression, best-fit line, r^2, and 95% confidence intervals are calculated using Prism Version 3.0 (Graph Pad Software).

[2] = tested on: Staphylococcus aureus (ATCC # 29213); assay: Broth microdilution MIC, S. aureus; type: cell-based; details: for MIC: Staphylococcus aureus, ATCC29213
Method: (§1) A broth microdilution assay is used to assess the antimicrobial activity of the compounds. […] Microorganisms tested include Staphylococcus aureus (ATCC # 29213), Enterococcus faecalis (ATCC # 29212), Pseudomonas aeruginosa (ATCC # 27853), and Escherichia coli (ATCC # 25922). The assay is performed in two growth media, Mueller Hinton Broth and Trypticase Soy Broth. A blood (Tsoy/5% sheep blood) agar plate is inoculated from frozen stocks maintained in T soy broth containing 10% glycerol and incubated overnight at 37° C. Colonies are suspended in sterile broth so that the turbidity matches the turbidity of a 0.5 McFarland standard. The inoculum is diluted 1:10 in sterile broth (Mueller Hinton or Trypticase soy) and 195 ul is dispensed per well of a 96-well plate. The compounds to be tested, dissolved in DMSO, are added to the wells in 5 ul volume at the following concentrations: 25, 12.5, 6.25, 3.125, 1.56 and 0.78 ug/ml in duplicate. Additional concentrations are tested if required. 5 ul of DMSO added to duplicate wells are the vehicle control. Serial dilutions of positive control compounds, vancomycin (E. faecalis and S. aureus) and tobramycin (E. coli and P. aeruginosa), are included in each run. After 24 hours of incubation at 37° C., plates are read at OD600 on a Molecular Devices SpectraMax Plus Spectrophotometer. Average OD600 values are computed using SOFTmax Pro Software (Molecular Devices) and MIC values are determined by linear regression analysis using Prism version 3.02 (Graph Pad Software, San Diego). The MIC is defined as the concentration of compound required to produce an OD600 reading equivalent to 10% of the vehicle control reading.

[3] = tested on: Pseudomonas aeruginosa (ATCC # 27853); assay: Broth microdilution MIC, P. aeruginosa; type: cell-based; details: for MIC: Pseudomonas aeruginosa, ATCC27853
Method: as §1

[4] = Mueller Hinton Broth, read-out: SA/MH (MIC)
[5] = Trypticase Soy Broth, read-out: SA/Tsoy (MIC)
[6] = Trypticase Soy Broth, read-out: PSAE/Tsoy (MIC)
[7] = marked (SB), abbreviation not defined, read-out: FAS (IC50) (SB) (converted)
[8] = Mueller Hinton Broth, read-out: PSAE/MH (MIC)

T1 sequence (P49327 whole entry): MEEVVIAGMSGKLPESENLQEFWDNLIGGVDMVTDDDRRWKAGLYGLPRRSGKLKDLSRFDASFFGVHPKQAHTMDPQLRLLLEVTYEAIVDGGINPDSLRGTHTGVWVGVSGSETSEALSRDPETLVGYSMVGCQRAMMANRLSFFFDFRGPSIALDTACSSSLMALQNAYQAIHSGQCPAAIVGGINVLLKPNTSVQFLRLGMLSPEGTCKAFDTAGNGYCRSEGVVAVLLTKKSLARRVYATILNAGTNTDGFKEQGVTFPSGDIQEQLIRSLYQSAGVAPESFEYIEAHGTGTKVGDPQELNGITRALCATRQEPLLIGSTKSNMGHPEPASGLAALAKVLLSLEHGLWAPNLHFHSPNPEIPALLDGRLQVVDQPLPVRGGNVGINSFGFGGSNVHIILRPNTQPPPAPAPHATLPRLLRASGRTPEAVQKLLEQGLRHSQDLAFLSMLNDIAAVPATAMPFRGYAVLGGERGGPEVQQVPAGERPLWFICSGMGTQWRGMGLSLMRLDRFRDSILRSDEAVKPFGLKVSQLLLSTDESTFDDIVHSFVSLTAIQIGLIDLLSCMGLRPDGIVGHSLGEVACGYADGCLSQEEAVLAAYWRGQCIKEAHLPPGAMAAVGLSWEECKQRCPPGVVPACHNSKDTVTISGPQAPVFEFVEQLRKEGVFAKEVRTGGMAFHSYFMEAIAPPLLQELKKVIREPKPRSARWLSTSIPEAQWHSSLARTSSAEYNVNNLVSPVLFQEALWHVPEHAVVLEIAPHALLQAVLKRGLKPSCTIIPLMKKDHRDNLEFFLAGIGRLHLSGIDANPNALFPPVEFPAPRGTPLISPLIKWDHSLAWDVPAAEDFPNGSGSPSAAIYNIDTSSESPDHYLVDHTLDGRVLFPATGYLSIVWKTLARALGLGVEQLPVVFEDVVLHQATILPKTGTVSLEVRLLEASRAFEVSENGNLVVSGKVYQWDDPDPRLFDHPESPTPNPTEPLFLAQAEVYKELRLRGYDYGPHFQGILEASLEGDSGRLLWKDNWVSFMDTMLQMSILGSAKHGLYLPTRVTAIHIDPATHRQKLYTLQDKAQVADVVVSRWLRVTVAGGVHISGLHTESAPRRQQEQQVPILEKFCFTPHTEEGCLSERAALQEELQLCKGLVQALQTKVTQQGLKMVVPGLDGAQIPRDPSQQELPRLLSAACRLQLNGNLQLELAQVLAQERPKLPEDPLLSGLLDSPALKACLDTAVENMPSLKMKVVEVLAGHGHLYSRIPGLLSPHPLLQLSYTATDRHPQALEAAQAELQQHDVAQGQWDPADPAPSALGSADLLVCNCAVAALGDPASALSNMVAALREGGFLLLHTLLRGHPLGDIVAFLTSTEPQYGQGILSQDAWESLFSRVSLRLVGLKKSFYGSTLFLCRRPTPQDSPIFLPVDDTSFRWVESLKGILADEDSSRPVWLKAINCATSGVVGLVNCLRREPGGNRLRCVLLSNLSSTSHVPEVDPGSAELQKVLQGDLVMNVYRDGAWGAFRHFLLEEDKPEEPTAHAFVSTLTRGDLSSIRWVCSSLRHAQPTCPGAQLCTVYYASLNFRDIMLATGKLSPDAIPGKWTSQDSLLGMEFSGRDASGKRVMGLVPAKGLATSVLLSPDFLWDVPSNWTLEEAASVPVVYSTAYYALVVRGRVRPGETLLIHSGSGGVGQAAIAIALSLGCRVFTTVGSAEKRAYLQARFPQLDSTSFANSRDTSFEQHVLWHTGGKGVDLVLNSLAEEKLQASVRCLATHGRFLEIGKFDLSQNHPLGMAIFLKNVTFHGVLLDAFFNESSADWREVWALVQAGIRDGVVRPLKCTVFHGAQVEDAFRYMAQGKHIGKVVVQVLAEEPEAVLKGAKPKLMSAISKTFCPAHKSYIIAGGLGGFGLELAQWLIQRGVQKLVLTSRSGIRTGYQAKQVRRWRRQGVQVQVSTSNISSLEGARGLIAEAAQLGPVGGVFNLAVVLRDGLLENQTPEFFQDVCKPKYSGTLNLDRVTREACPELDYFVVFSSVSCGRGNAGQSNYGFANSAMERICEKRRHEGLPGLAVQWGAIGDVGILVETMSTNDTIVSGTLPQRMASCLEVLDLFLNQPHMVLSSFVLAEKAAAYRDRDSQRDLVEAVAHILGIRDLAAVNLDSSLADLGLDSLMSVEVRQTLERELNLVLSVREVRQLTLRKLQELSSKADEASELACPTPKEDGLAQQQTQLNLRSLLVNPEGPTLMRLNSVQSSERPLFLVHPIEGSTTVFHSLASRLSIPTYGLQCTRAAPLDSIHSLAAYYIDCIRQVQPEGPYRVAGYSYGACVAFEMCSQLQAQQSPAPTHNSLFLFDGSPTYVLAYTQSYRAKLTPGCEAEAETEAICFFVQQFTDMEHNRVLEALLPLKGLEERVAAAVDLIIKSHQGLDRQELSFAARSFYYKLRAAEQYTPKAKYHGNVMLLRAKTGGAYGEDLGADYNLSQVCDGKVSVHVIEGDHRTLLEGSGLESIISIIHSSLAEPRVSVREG

SMILES | MIC [3, 6] | IC50 [1, 7] | FAS (IC50) ([1]; purified human FAS, OD340) | Solubility remark under FAS (IC50) [1] | other results
CCCCCCCCC1OC(=O)C(=O)C1C(=O)OCC (stereo not drawn) [Compound 1] | 103 µg/mL (≈ 362 µM) | – | – | – | IC50 ([1]; purified human FAS, OD340, read-out: FAS (IC50) (converted)): 65.1 µM; MIC [2, 4]: 32 µg/mL (≈ 113 µM); MIC [2, 5]: 25 µg/mL (≈ 87.9 µM); PSAE/MH (MIC) ([3]; Mueller Hinton Broth): Neg
CCCCC1OC(=O)C(O)=C1C(=O)OCC (stereo not drawn) [Compound 2] | 210 µg/mL (≈ 920 µM) | 1230 µM | Neg | – | SA/MH (MIC) ([2]; Mueller Hinton Broth): Neg; SA/Tsoy (MIC) ([2]; Trypticase Soy Broth): Neg; MIC [3, 8]: 155 µg/mL (≈ 679 µM)
CCCCCCCCC1OC(=O)C(OCC(=O)OCC)=C1C(=O)OCC (stereo not drawn) [Compound 3] | 186 µg/mL (≈ 502 µM) | 121 µM | Neg | – | MIC [2, 4]: 150 µg/mL (≈ 405 µM); MIC [2, 5]: 146 µg/mL (≈ 394 µM); MIC [3, 8]: 173 µg/mL (≈ 467 µM)
CCCCCCCCC1OC(=O)C(OC)=C1C(=O)OCC (stereo not drawn) [Compound 4] | – | – | Neg | Solubility problems | –
CCCCCCCCC1OC(=O)C(OCc2ccccc2)=C1C(=O)OCC (stereo not drawn) [Compound 5] | – | – | Neg | Solubility problems | –
C=CCOC1=C(C(=O)OCC)C(CCCCCCCC)OC1=O (stereo not drawn) [Compound 6] | – | – | Neg | Solubility problems | –
CCCCCCCCC1OC(=O)C(OC(=O)OCC)=C1C(=O)OCC (stereo not drawn) [Compound 7] | – | 222 µM | – | – | –
